According to patent US4495179A, “A51568 Antibiotic and process for producing thereof” (Eli Lilly and Company, priority 1983, dated 1985):
Converted amounts (≈) assume the structure as drawn.

How the values were obtained:
[1] = test system: Haemophilus influenzae; experiment: Agar-dilution MIC, variety of bacteria (Table 8); assay type: cell-based
Experimental: (§1) The activity of antibiotic A51568 against a variety of bacteria, as determined by the agar-dilution method, is reported in Table 8, which follows, wherein the minimum inhibitory concentration (MIC) values are recorded.

[2] = test system: Streptococcus pneumoniae; experiment: Agar-dilution MIC, variety of bacteria (Table 8); assay type: cell-based
Experimental: as §1

[3] = test system: Staphylococcus aureus; experiment: Agar-dilution MIC, variety of bacteria (Table 8); assay type: cell-based
Experimental: as §1

[4] = test system: Streptococcus pyogenes; experiment: Agar-dilution MIC, variety of bacteria (Table 8); assay type: cell-based
Experimental: as §1

[5] = test system: Haemophilus parainfluenzae; experiment: Agar-dilution MIC, variety of bacteria (Table 8); assay type: cell-based
Experimental: as §1

[6] = test system: Strep. pneumoniae Park I; experiment: In vivo protection against experimental bacterial infection; conditions: mice, two doses subcutaneously
Experimental: (§2) Antibiotic A51568 has shown in vivo antimicrobial activity against experimental bacterial infections. When two doses of test compound were administered subcutaneously to mice in illustrative infections, the activity observed is measured as an ED50 [effective dose in mg/kg to protect fifty percent of the test animals: See Warren Wick et al., J. Bacteriol. 81, 233-235 (1961)]. The ED50 values observed for antibiotic A51568 are as follows: […]

[7] = test system: Staph. aureus 3055; experiment: as above; conditions: mice, Staph. aureus 3055 infection, two doses subcutaneously
Experimental: as §2

[8] = test system: Strep. pyogenes C203; experiment: as above; conditions: mice, two doses subcutaneously
Experimental: as §2

[9] = test system: Clostridium perfringens; assay type: cell-based; conditions: Clostridium perfringens 81; Table 10
[10] = test system: Bacteroides fragilis; experiment: Agar-dilution MIC, anaerobic bacteria (Table 10); assay type: cell-based
[11] = test system: Bacteroides corrodens; experiment: Agar-dilution MIC, anaerobic bacteria (Table 10); assay type: cell-based; conditions: Bacteroides corrodens 1874
[12] = test system: Clostridium difficile; experiment: Agar-dilution MIC, Clostridium difficile strains (Table 11); assay type: cell-based
From the text: Antibiotic A51568 is also active against a number of strains of Clostridium difficile, as determined by the agar-dilution method.

[13] = test system: Bacteroides vulgatis; experiment: Agar-dilution MIC, anaerobic bacteria (Table 10); assay type: cell-based; conditions: Bacteroides vulgatis 1211
[14] = test system: Peptococcus asaccharolyticus; experiment: Agar-dilution MIC, anaerobic bacteria (Table 10); assay type: cell-based; conditions: Peptococcus asaccharolyticus 1302

Question: CC(C)C[C@@H](N)C(=O)N[C@@H]1C(=O)N[C@@H](CC(N)=O)C(=O)N[C@H]2C(=O)N[C@H]3C(=O)N[C@H](C(=O)N[C@H](C(=O)O)c4cc(O)cc(O)c4-c4cc3ccc4O)[C@H](O)c3ccc(c(Cl)c3)Oc3cc2cc(c3O[C@@H]2O[C@H](CO)[C@@H](O)[C@H](O)[C@H]2O[C@H]2C[C@](C)(N)C(O)[C@H](C)O2)Oc2ccc(cc2Cl)[C@H]1O (stereo partly shown) [A51568, demethylvancomycin] was tested. Which MIC ([1]; Haemophilus influenzae 4842) did it give?
Answer: Its MIC is 32 µg/mL (≈ 22.3 µM).

Question: And the MIC ([1]; Haemophilus influenzae 16836)?
Answer: The MIC was 128 µg/mL (≈ 89.2 µM).

Question: And the MIC ([1]; Haemophilus influenzae Bond)?
Answer: Its MIC is 64 µg/mL (≈ 44.6 µM).

Question: And the MIC ([1]; Haemophilus influenzae C.L.)?
Answer: Its MIC is 32 µg/mL (≈ 22.3 µM).

Question: What about the MIC ([1]; Haemophilus influenzae Mx366) of the same compound?
Answer: The MIC was 32 µg/mL (≈ 22.3 µM).

Question: What about the MIC ([1]; Haemophilus influenzae Mx371) of the same compound?
Answer: Its MIC is 64 µg/mL (≈ 44.6 µM).

Question: What about the MIC ([2]; Streptococcus pneumoniae Bl-438) of the same compound?
Answer: The MIC was 0.5 µg/mL (≈ 0.348 µM).

Question: And the MIC ([2]; Streptococcus pneumoniae Park I)?
Answer: Its MIC is 0.125 µg/mL (≈ 0.0871 µM).

Question: And the MIC ([3]; Staphylococcus aureus 3055)?
Answer: Its MIC is 0.5 µg/mL (≈ 0.348 µM).

Question: And the MIC ([3]; Staphylococcus aureus V102)?
Answer: Its MIC is 1 µg/mL (≈ 0.697 µM).

Question: And the MIC ([3]; Staphylococcus aureus V138)?
Answer: Its MIC is 1 µg/mL (≈ 0.697 µM).

Question: And the MIC ([3]; Staphylococcus aureus V140)?
Answer: Its MIC is 1 µg/mL (≈ 0.697 µM).

Question: And the MIC ([3]; Staphylococcus aureus X400)?
Answer: Its MIC is 1 µg/mL (≈ 0.697 µM).

Question: And the MIC ([4]; Streptococcus pyogenes ATCC 10389)?
Answer: The MIC was 0.5 µg/mL (≈ 0.348 µM).

Question: What about the MIC ([4]; Streptococcus pyogenes C203) of the same compound?
Answer: The MIC was 0.5 µg/mL (≈ 0.348 µM).

Question: And the MIC ([5]; Haemophilus parainfluenzae 7901)?
Answer: The MIC was 64 µg/mL (≈ 44.6 µM).

Question: What about the MIC ([5]; Haemophilus parainfluenzae 9796) of the same compound?
Answer: The MIC was 64 µg/mL (≈ 44.6 µM).

Question: And the “ED50 (effective dose to protect fifty percent of the test animals)” value [6]?
Answer: The value was 2.71 mg/kg × 2.

Question: What about the “ED50 (effective dose to protect fifty percent of the test animals)” value [7] of the same compound?
Answer: Its value is 1.79 mg/kg × 2.

Question: What about the “ED50 (effective dose to protect fifty percent of the test animals)” value [8] of the same compound?
Answer: The value was 3.03 mg/kg × 2.

Question: What about the MIC [9] of the same compound?
Answer: Its MIC is 1 µg/mL (≈ 0.697 µM).

Question: What about the MIC ([10]; Bacteroides fragilis 111) of the same compound?
Answer: The MIC was 32 µg/mL (≈ 22.3 µM).

Question: And the MIC ([10]; Bacteroides fragilis 1877)?
Answer: Its MIC is 32 µg/mL (≈ 22.3 µM).

Question: What about the MIC ([10]; Bacteroides fragilis 1936B) of the same compound?
Answer: The MIC was 32 µg/mL (≈ 22.3 µM).

Question: What about the MIC [11] of the same compound?
Answer: Its MIC is 32 µg/mL (≈ 22.3 µM).

Question: And the MIC ([12]; Clostridium difficile 78)?
Answer: Its MIC is 2 µg/mL (≈ 1.39 µM).

Question: And the MIC ([12]; Clostridium difficile 107B)?
Answer: The MIC was 2 µg/mL (≈ 1.39 µM).

Question: What about the MIC ([12]; Clostridium difficile 111F) of the same compound?
Answer: Its MIC is 2 µg/mL (≈ 1.39 µM).

Question: And the MIC ([12]; Clostridium difficile 1153)?
Answer: Its MIC is 2 µg/mL (≈ 1.39 µM).

Question: What about the MIC ([12]; Clostridium difficile 2634) of the same compound?
Answer: The MIC was 2 µg/mL (≈ 1.39 µM).

Question: What about the MIC ([12]; Clostridium difficile 3424-5B) of the same compound?
Answer: Its MIC is 2 µg/mL (≈ 1.39 µM).

Question: And the MIC ([12]; Clostridium difficile 3816)?
Answer: Its MIC is 2 µg/mL (≈ 1.39 µM).

Question: And the MIC ([12]; Clostridium difficile 3950D)?
Answer: The MIC was 2 µg/mL (≈ 1.39 µM).

Question: What about the MIC ([12]; Clostridium difficile 6890) of the same compound?
Answer: Its MIC is 2 µg/mL (≈ 1.39 µM).

Question: What about the MIC ([12]; Clostridium difficile 8484) of the same compound?
Answer: Its MIC is 2 µg/mL (≈ 1.39 µM).

Question: What about the MIC ([12]; Clostridium difficile A-194) of the same compound?
Answer: The MIC was 2 µg/mL (≈ 1.39 µM).

Question: And the MIC ([12]; Clostridium difficile A-195)?
Answer: Its MIC is 2 µg/mL (≈ 1.39 µM).

Question: What about the MIC ([12]; Clostridium difficile A-196) of the same compound?
Answer: Its MIC is 2 µg/mL (≈ 1.39 µM).

Question: And the MIC ([12]; Clostridium difficile A-279)?
Answer: Its MIC is 2 µg/mL (≈ 1.39 µM).

Question: What about the MIC ([12]; Clostridium difficile A-280) of the same compound?
Answer: The MIC was 2 µg/mL (≈ 1.39 µM).

Question: What about the MIC ([12]; Clostridium difficile A-281) of the same compound?
Answer: The MIC was 2 µg/mL (≈ 1.39 µM).

Question: And the MIC ([12]; Clostridium difficile WAL-2112)?
Answer: Its MIC is 2 µg/mL (≈ 1.39 µM).

Question: What about the MIC ([12]; Clostridium difficile WAL-3657) of the same compound?
Answer: The MIC was 2 µg/mL (≈ 1.39 µM).

Question: And the MIC ([12]; Clostridium difficile WAL-4268)?
Answer: Its MIC is 2 µg/mL (≈ 1.39 µM).

Question: And the MIC [13]?
Answer: Its MIC is 32 µg/mL (≈ 22.3 µM).

Question: And the MIC [14]?
Answer: Its MIC is 16 µg/mL (≈ 11.1 µM).
